Data on 3 molecules can be found in publication PMC12114812 (Pharmaceutics, 2025).

Data set [1] is described as follows: Shake-flask solubility with and without excipient (maleic/maleate buffers, HPLC quantification). The format is physicochemical. The settings on record: 25 °C. The protocol: Prior to performing the solubility measurements, maleic/maleate buffers were prepared as follows: a stock solution containing 55 mM maleic acid, 126 mM sodium chloride, and 82 mM NaOH (conditions that mimic the fed state of the intestinal fluid) was made following the guidelines of Biorelevant. Final buffers at pH 2, 5.8, and 6.5 were prepared by the addition of HCl or NaOH to three different aliquots of the stock solution. […] The weighed amount must be enough to obtain saturated solutions, which depends on the sample and pH of the buffer used. The samples were shaken for 24 h at 25 ± 0.5 °C, with a pH control of the solutions after 4 h of shaking. […] After shaking for 24 h, the samples were allowed to equilibrate for an additional 24 h. Subsequently, the final pH was measured, and phase separation was carried out via centrifugation. […] The quantification of the supernatant was performed by liquid chromatography under isocratic conditions using methanol/10 mM phosphate buffer at pH 7.5 as the mobile phase. […] The flow rate was set at 1 mL/min, with an injection volume of 10 μL. […] If necessary, an appropriate dilution in water of the saturated supernatant was carried out to ensure its fit in the range of calibration. The effect of a given excipient on the solubility of a drug depends on both the nature of the compound and the nature of the excipient used. To evaluate if the enhancement in solubility is significant with respect to the solubility in water when the excipients are added, the criterion of twice the standard deviation (sd) was applied. […] This value was chosen because it corresponds to an average standard deviation obtained in our laboratory for shake-flask solubility determinations and it also agrees with typical sd reported in the literature.

Data set [2] is described as follows: Ionization degree at the studied pH according to pKa. The format is physicochemical. The method, then:
Therefore, this pH value was also included in the study. […] When the solubility of the free drugs (without excipients) is evaluated, it can be observed that the intrinsic solubility is in agreement with their hydrophobicity (Table 1). […] Benzthiazide has an intermediate solubility. Moreover, as expected, the solubility of the compounds increases with the ionization degree. […] Here, a slight increase is observed.

The nature of another data set: physchem. Format: physicochemical. The settings on record: I = 0.15 M, 25 °C, standard deviation in parenthesis. The protocol: The pKa and logPo/w determinations were performed using the SiriusT3 titrator (Pion Inc.). The titrations were carried out from pH 12.0 to 2.0 due to the acidic nature of the drugs, at an ionic strength of 0.15 M (KCl), under an argon atmosphere and controlled temperature (25.0 ± 0.1 °C).
Octanol–water partition values, logPo/w, were obtained by potentiometric titrations in the presence of octanol at concentrations between 1.4 mM and 0.4 mM.

A short description of data set [3]: CheqSol potentiometric intrinsic solubility and supersaturation. The format is physicochemical. The settings on record: for pH range in which the drug precipitated from solution: CheqSol titration from pH 12.0 to low pH, with and without excipients; for time of supersaturation: with hydrophilic excipients; for ts, time of supersaturation: drug:excipient 1:1; for ts, time of supersaturation / solubility: 0.17 M KCl; for Rs, supersaturation ratio: Rs = Cmax/S0, S0 of the API in a medium without excipients; for solubility: aqueous titration solution, without excipient. The text has this: For the determination of the intrinsic solubility using the potentiometric method, two events must happen: First, the compound must be fully dissolved at the beginning of the titration. Second, the precipitation of the compound from the solution should occur close to the equivalent point of the titration curve. The amount of compound used in a CheqSol determination must be enough to achieve both events. […] All titrations started at pH 12.0, where the compounds were ionized and titrated to a low pH to force precipitation. […] At this point, the sample existed in a supersaturated or subsaturated state (i.e., chase equilibrium). The change between the subsaturated and supersaturated states was repeated several times to determine the intrinsic solubility by calculating the pH by interpolation between the two saturated states. The intrinsic solubility was calculated using the principles of mass and charge balance at the pH at which the equilibrium of the system was reached.
The CheqSol method not only provides the thermodynamic solubility of the neutral form (S0) of an ionizable compound but also the extent and time that a solution remains supersaturated before reaching S0. Both parameters are used to evaluate the supersaturation of a compound [10]. In this method, the experiment starts in conditions where the drug is completely ionized, and so, fully dissolved. Therefore, the concentration of the neutral species in solution is “zero”. The titration begins by titrating towards the pKa of the drug, to force precipitation as the neutral species starts to form. During this process, the concentration of the neutral species in solution increases to a maximum (Cmax) before the drug precipitates. When precipitation starts, it decreases dramatically to a much lower concentration to reach the intrinsic solubility. It must be noted that, before the drug precipitates, the solution is supersaturated. […] The supersaturation parameters can be obtained from the plot that monitors the concentration of neutral species in solution against time. […] The extent of the supersaturation corresponds to the maximum concentration of the neutral species in solution (Cmax) before the drug precipitates, and the duration of the supersaturation (ts) is the amount of time that the drug stays supersaturated until it reaches equilibrium solubility. In addition, the supersaturation ratio (Rs) can be calculated by dividing Cmax by the intrinsic solubility (S0).

The nature of data set [4]: pKa determination, spectrometric UV-metric titration (SiriusT3). The settings on record: aqueous 0.15 M KCl solution; I = 0.15 M, 25 °C; standard deviation in parenthesis; read-out: pKa (second value). The format is physicochemical. The method, then:
The pKa and logPo/w determinations were performed using the SiriusT3 titrator (Pion Inc.). […] For the analysis, 5 μL of a 10 mM DMSO sample stock solution, and 25 μL of a 15 mM potassium phosphate buffer, were added to 1.5 mL of a 0.15 M KCl solution. The UV-metric titration method used the UV absorbance changes in the aromatic groups close to the ionizable groups of the substance as a function of pH [30]. […] Results are the mean value from four triple titrations.

On the set-up of data set [5]: method as in PMID 29481859. As to conditions: I = 0.15 M, 25 °C; cited from earlier work.
The mark [6] stands for this setting: pH 2, Captisol, 1:1 excipient:API weight ratio.
The mark [7] stands for this setting: pH 2, Cavasol, 1:1 excipient:API weight ratio.
Where [8] appears, read: pH 2, Klucel, 1:1 excipient:API weight ratio.
The mark [9] stands for this setting: pH 2, Kollidon, 1:1 excipient:API weight ratio.
[10] abbreviates: pH 2, S630, 1:1 excipient:API weight ratio.
Where [11] appears, read: pH 5.8, Captisol, 1:1 excipient:API weight ratio.
The mark [12] stands for this setting: pH 5.8, Cavasol, 1:1 excipient:API weight ratio.
Where [13] appears, read: pH 5.8, Klucel, 1:1 excipient:API weight ratio.
The mark [14] stands for this setting: pH 5.8, Kollidon, 1:1 excipient:API weight ratio.
Where [15] appears, read: pH 5.8, S630, 1:1 excipient:API weight ratio.
Setting [16] is: pH 6.5, Captisol, 1:1 excipient:API weight ratio.
Where [17] appears, read: pH 6.5, Cavasol, 1:1 excipient:API weight ratio.
[18] abbreviates: pH 6.5, Klucel, 1:1 excipient:API weight ratio.
[19] abbreviates: pH 6.5, Kollidon, 1:1 excipient:API weight ratio.
[20] abbreviates: pH 6.5, S630, 1:1 excipient:API weight ratio.
[21] abbreviates: CheqSol, 25 °C, standard deviation in parenthesis.
[22] abbreviates: standard deviation in parenthesis.
Where [23] appears, read: thermodynamic from solid, CheqSol, 25 °C, standard deviation in parenthesis, read-out: log S0 (intrinsic solubility) (converted).

≈ marks a conversion by molar mass, not a printed value. Where two headings read alike, the source gives them in different places.

By logP is commonly meant the decadic logarithm of the partition coefficient of the neutral form, usually between octanol and water. As a reminder, the solubility is the dissolved amount per volume that the medium holds. On to `Cc1cc(NC(=O)C2=C(O)c3ccccc3S(=O)(=O)N2C)no1` [Isoxicam], for which the SEXC/SAPI in data set [1] (setting [6]) worked out at 1.48; in data set [1] (setting [7]) it was 1.45; in data set [1] (setting [8]), 1.50; in data set [1] (setting [9]), 1.47; in data set [1] (setting [10]) it was 1.81; in data set [1] (setting [11]), 1.44. The SEXC/SAPI was 1.56 in data set [1] (setting [12]); 1.93 in data set [1] (setting [13]); 1.88 in data set [1] (setting [14]); 1.96 in data set [1] (setting [15]); 1.52 in data set [1] (setting [16]); 1.61 in data set [1] (setting [17]). Further, the SEXC/SAPI in data set [1] (setting [18]) is recorded as 1.84; in data set [1] (setting [19]), 1.93; in data set [1] (setting [20]) it was 1.73. In addition, the ionization degree result in data set [2] (pH 5.8, anionic form) is “fully ionized”; in data set [2] (pH 5.8, anionic form, listed as isoxicam) it was roughly 100%; in data set [2] (pH 6.5, anionic form) it was roughly 100%. In the data set “physchem” (octanol/water), the log partition coefficient (logP) was 2.99. In data set [3], the “pH range in which the drug precipitated from solution” value (shortened to “pH range”) is recorded as 3.7–6.7 pH. In data set [3] (CheqSol, in the presence of klucel), the “time the initial metastable form is stabilized” value is on record as “around 16 min”. The time of supersaturation in data set [3] (CheqSol) was ~ 20 min. Further, the “ts, time of supersaturation” value in data set [3] (setting [21]) is 11 (3) min; in data set [3] (CheqSol, 25 °C, standard deviation in parenthesis, listed as isoxicam) it was 11 min. Besides, the “Rs, supersaturation ratio” value is given as 48 (4) in data set [3] (setting [22]) and 48 in data set [3] (standard deviation in parenthesis, listed as isoxicam). The solubility in data set [3] (CheqSol, Figure 2A, read-out: Intrinsic solubility) was 1.88 µM (≈ 0.63 µg/mL); in data set [3] (setting [23]) it was 1.91 µM (≈ 0.639 µg/mL).
As a reminder, the pKa is the negative logarithm of the acid dissociation constant. Turning to `CN1C(C(=O)Nc2ccccn2)=C(O)c2ccccc2S1(=O)=O` [Piroxicam], the ionization degree entry is listed as “around 40%” in data set [2] (pH 2, cationic form, positively charged); 75% in data set [2] (pH 5.8, anionic form); 96% in data set [2] (pH 6.5, anionic form). Moreover, the logP in “physchem” was 1.71. Further, the “pH range” value in data set [3] is recorded as 5.7–6.7 pH. Also, the time of supersaturation in data set [3] (CheqSol) is reported as ~ 10 min. Besides, the “ts, time of supersaturation” value in data set [3] (setting [21]) is reported as 7 (1) min. Also, the solubility in data set [3] (setting [23]) was 21.4 µM (≈ 7.08 µg/mL). Also, the pKa in data set [4] amounted to 5.34.
For `NS(=O)(=O)c1cc2c(cc1Cl)N=C(CSCc1ccccc1)NS2(=O)=O` [Benzthiazide], the SEXC/SAPI stood at 1.14 in data set [1] (setting [6]); 0.97 in data set [1] (setting [7]); 1.20 in data set [1] (setting [8]); 1.29 in data set [1] (setting [9]); 1.61 in data set [1] (setting [10]); 1.09 in data set [1] (setting [11]). The SEXC/SAPI in data set [1] (setting [12]) is recorded as 0.83; in data set [1] (setting [13]), 1.12; in data set [1] (setting [14]), 1.21; in data set [1] (setting [15]), 1.49; in data set [1] (setting [16]), 1.29; in data set [1] (setting [17]), 0.98. The SEXC/SAPI in data set [1] (setting [18]) worked out at 1.15; in data set [1] (setting [19]) it was 1.24; in data set [1] (setting [20]), 1.28. For the same molecule, the ionization degree entry in data set [2] (pH 6.5, anionic form) is “around 40%”. In addition, the “pKa (first value)” value in data set [5] is 6.64. In addition, the “pKa (second value)” value in data set [5] is 9.22. Further, in the data set “physchem” (octanol/water), the log partition coefficient (logP) came to 1.89. In data set [3], the “pH range” value is listed as 6.6–8.7 pH. Further, the time of supersaturation in data set [3] (CheqSol) is given as ~ 20 min. Besides, in data set [3] (setting [21]), the “ts, time of supersaturation” value is on record as 6 (1) min. The “Rs, supersaturation ratio” value in data set [3] (setting [22]) was 4 (1). Also, the solubility in data set [3] (setting [23]) was 11.2 µM (≈ 4.85 µg/mL). For the same molecule, the “Rs, fold higher” value in data set [3] (in the presence of klucel and plasdone S630) stood at 40 fold; in data set [3] (in the presence of kollidon), 100 fold.
